Data on two substances can be found in patent US20240174718A1, “RYANODINE RECEPTOR INHIBITOR COMPOUNDS AND METHODS RELATING THERETO” (Vanderbilt University, priority 2022, published 2024).

Read-outs that look alike come from different tables or passages of the source.

Data set [1] addresses T1, RyR2 (Mus musculus, UniProt E9Q401).
T1 construct: spontaneous openings of intracellular RyR2 Ca^2+ release channels; endogenous in cells; host or cells: ventricular cardiomyocytes isolated from Casq2-/- mice (saponin-permeabilized in A1, intact in A7)
The settings on record: read-out: IC50, intact cardiomyocyte assay (ent-1 comparison); cited from earlier work.

The conditions of data set [2]: cited from earlier work.
Data set [3] has as its target T2, RyR2 (Sus scrofa, UniProt A0A5G2R1W3).
T2 construct: isolated SR vesicles derived from porcine cardiac muscle; from tissue; host or cells: porcine heart (cardiac sarcoplasmic reticulum vesicles)
The settings on record: read-out: IC50, ryanodine binding assay (ent-1 comparison); cited from earlier work.

Another data set relates to Casq2-/- mice. The note with it: cited from earlier work.
The target in data set [4] is T1, RyR2. Kind of data set: Calcium spark frequency in permeabilized Casq2 knockout cardiomyocytes (screen for RyR2 activity). The class given is cell-based. The procedure:
FIGS. 3(A)-3(E) show a biological screen for cardiac ryanodine receptor (RyR2) activity. Note that ‘ent-24’=9, and ‘ent-18’ refers to structure 8 in FIG. 1, which is also the enantiomer of a natural product. (3A) Calcium spark frequency in permeabilized murine cardiomyocytes was recorded as an index of RyR2 activity. Compounds were screened at 25 uM concentration after 10-minute incubation. *=p<0.001 by one-way ANOVA with Tukey's post-hoc test. (3B) Incubation time was extended to 60 minutes for the 12- and 30-membered rings. (3C) The seco-acid precursors to 12- and 18-membered rings were tested at 25 uM. (3D) Concentration response curve for the 18-membered ring and (3E) 24-membered ring. Cells were incubated for 30 minutes
Activity of Ring-Size Analogues. […] Ventricular cardiomyocytes were isolated, permeabilized with saponin, and incubated with vehicle (DMSO) or 25 μM of selected compound. RyR2 activity was measured in the form of calcium sparks, which are elementary Ca^2+ release events generated by spontaneous openings of intracellular RyR2 Ca^2+ release channels. Importantly, saponin selectively permeabilizes the sarcolemmal membrane, leaving the SR membrane intact and ensuring equivalent access of the compounds to the SR membrane where RyR2 resides.
The compounds were first screened by incubating cardiomyocytes for 10 minutes at 25 μM concentration and compared to vehicle (DMSO) conditions.

Data set [5] deals with mammalian cardiac ryanodine receptor (RyR2). The note with it: cited from earlier work.

T1 sequence (E9Q401 whole entry): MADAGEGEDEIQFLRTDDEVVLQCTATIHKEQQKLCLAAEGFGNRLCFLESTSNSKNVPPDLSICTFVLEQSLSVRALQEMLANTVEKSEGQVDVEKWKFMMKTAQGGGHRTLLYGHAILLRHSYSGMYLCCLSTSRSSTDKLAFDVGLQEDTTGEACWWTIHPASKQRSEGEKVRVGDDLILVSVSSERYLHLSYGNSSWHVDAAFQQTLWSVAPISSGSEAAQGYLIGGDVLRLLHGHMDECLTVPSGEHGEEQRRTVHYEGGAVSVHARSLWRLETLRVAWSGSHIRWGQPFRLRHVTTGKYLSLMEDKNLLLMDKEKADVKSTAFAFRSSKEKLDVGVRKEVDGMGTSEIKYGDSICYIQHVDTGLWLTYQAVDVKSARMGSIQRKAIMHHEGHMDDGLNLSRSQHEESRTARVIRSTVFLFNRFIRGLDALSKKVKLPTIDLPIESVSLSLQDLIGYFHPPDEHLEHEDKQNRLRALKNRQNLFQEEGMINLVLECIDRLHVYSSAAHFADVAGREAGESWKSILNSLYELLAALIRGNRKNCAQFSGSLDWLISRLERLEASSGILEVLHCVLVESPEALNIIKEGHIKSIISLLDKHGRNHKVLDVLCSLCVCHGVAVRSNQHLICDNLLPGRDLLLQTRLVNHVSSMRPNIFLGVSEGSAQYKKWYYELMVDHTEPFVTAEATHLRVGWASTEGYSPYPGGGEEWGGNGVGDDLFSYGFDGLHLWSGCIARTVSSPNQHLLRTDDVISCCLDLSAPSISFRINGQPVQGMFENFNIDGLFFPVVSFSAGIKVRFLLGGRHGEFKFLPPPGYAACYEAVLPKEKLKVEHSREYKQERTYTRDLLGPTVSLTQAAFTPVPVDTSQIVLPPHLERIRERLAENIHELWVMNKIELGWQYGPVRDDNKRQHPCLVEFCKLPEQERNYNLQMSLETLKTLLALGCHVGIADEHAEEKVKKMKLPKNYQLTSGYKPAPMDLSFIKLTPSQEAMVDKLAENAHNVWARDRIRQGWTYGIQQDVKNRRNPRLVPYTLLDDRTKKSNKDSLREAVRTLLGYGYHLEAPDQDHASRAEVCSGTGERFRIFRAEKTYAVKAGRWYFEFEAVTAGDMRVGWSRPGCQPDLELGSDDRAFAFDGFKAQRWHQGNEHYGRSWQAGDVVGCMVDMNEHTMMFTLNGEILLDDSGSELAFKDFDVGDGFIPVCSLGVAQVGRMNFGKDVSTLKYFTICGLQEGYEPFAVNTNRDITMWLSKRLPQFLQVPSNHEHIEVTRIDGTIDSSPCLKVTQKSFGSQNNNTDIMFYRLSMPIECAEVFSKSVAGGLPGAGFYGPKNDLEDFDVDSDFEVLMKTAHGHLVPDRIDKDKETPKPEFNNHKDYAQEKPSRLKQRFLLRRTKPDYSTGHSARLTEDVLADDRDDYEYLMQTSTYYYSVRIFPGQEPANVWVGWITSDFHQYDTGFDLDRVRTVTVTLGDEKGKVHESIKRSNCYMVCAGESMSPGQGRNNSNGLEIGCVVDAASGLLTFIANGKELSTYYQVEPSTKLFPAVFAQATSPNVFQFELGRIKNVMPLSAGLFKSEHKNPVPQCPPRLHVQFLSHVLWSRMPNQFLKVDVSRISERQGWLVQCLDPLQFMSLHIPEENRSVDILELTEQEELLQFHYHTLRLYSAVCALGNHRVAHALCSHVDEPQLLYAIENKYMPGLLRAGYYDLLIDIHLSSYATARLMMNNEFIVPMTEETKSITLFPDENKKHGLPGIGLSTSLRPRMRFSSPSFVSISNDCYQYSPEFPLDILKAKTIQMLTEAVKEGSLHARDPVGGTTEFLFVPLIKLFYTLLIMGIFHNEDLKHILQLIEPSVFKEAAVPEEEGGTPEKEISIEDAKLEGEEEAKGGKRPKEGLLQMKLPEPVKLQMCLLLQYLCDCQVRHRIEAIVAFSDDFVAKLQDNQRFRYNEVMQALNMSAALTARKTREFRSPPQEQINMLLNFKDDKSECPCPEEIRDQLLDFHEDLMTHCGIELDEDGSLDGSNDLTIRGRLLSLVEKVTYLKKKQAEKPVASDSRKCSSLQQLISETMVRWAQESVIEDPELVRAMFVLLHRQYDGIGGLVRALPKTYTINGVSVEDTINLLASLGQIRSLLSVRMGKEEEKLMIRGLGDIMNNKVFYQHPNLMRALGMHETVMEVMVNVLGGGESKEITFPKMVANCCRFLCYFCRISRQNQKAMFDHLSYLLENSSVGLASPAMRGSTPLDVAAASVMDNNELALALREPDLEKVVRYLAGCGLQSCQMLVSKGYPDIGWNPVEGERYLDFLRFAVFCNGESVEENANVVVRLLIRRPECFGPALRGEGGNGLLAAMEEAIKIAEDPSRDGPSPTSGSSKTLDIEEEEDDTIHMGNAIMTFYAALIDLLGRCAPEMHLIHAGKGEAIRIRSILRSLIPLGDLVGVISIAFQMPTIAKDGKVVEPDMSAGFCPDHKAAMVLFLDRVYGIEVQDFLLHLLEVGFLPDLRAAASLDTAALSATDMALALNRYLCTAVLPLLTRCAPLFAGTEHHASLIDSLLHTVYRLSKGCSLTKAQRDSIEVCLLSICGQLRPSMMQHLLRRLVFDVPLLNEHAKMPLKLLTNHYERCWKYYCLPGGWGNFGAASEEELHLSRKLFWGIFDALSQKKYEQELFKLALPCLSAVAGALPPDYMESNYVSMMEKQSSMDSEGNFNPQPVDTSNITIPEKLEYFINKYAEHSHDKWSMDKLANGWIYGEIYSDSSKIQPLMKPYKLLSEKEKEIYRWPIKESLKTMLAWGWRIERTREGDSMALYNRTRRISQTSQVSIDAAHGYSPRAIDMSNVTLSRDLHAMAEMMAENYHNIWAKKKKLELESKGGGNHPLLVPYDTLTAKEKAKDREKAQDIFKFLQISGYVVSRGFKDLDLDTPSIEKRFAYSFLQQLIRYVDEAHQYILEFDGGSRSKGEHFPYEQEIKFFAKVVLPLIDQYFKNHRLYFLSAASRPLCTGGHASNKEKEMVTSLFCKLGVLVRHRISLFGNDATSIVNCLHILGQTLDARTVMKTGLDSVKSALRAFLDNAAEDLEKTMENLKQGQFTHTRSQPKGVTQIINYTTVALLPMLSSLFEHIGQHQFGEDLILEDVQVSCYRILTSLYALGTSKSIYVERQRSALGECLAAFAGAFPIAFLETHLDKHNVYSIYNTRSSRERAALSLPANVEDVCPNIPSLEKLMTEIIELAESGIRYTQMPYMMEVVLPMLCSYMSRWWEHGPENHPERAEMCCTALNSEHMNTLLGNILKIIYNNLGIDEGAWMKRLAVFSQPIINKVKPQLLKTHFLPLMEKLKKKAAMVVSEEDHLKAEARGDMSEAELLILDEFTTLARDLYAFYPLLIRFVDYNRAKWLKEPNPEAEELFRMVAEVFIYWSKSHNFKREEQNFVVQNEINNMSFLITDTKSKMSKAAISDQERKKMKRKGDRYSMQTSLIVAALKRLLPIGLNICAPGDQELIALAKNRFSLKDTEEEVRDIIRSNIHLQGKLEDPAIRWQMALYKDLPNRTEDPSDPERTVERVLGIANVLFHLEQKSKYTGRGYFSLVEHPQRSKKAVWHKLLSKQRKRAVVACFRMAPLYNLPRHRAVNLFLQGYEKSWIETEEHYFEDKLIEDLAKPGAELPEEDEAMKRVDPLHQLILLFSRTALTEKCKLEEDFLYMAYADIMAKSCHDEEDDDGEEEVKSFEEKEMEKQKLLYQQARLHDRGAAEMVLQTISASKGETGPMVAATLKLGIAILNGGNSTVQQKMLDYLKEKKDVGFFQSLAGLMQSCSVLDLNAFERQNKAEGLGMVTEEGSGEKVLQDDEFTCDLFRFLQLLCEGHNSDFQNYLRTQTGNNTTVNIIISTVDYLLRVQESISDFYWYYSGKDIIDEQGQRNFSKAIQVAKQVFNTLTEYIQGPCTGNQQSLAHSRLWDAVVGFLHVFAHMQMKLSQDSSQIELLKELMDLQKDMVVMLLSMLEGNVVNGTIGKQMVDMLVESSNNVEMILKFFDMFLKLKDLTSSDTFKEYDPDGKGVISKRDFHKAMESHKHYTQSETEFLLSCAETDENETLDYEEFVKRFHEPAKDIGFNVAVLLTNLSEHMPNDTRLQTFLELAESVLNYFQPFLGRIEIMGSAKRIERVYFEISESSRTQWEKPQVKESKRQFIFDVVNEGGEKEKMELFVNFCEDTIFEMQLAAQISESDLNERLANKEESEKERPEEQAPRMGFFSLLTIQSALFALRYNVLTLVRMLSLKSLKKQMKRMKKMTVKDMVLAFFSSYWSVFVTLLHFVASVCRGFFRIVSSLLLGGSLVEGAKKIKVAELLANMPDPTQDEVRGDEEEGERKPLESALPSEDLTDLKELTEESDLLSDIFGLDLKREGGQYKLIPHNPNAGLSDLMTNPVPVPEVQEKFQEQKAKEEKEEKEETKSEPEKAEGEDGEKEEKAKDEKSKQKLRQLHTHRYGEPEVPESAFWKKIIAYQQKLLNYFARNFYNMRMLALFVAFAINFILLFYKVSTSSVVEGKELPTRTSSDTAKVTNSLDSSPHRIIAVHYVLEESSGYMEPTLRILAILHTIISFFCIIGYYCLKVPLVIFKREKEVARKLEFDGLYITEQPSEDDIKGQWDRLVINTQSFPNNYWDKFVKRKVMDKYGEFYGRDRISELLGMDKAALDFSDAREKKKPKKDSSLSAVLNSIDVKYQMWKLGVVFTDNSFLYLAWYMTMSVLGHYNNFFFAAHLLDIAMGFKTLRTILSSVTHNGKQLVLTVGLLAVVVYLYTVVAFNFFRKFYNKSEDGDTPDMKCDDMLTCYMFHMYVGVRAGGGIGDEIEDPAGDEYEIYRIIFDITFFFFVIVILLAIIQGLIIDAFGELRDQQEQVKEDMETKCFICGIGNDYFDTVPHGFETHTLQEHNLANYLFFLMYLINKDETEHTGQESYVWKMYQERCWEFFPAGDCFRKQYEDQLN

Take (+)-ent-verticilide [ent-1]: the IC50 – broadly, the concentration needed to halve the response being measured – on RyR2 [1] is 90 nM; on RyR2 [3], 100 nM. Also, the “half-life of ent-1” value in data set [2] (3 mg/kg dose) is 6.9 h; in data set [2] (30 mg/kg dose), 6.4 h. Further, the “t1/2 of ent-1” value in data set [2] (mice) was 6.92 h. Besides, the “reduction in ventricular ectopy burden (ent-1)” value in the data set on Casq2-/- mice (30 mg/kg, same arrhythmia induction protocol) is 70%. In addition, the “antiarrhythmic efficacy in vivo (ent-1)” value in the data set on Casq2-/- mice (single dose study, 3 and 30 mg/kg i.p., Casq2-/- mice) is given as “antiarrhythmic efficacy”. Besides, the “RyR2-mediated Ca2+ spark frequency” value at RyR2 [4] (25 μM, 10 minutes incubation, vs vehicle (DMSO)) was “significantly inhibited”. Further, the “RyR2-mediated spontaneous calcium release” value in data set [5] is given as “significantly reduced”. Also, the “potency of inhibition of mammalian cardiac ryanodine receptor calcium release channels” value in data set [5] is recorded as “sub-micromolar potency”.
As for “(−)-nat-verticilide [reference compound]”, the “activity in the calcium spark assay (summary statement)” value on RyR2 [4] is “none of these were active”. Moreover, the “RyR2-mediated spontaneous calcium release” value in data set [5] is reported as “no effect”.
